We go through 14 molecules from patent US6656932B2, “Benzo thiadiazine matrix metalloproteinase inhibitors” (Warner-Lambert Company, priority 2001, dated 2003).

Where two headings read alike, the source gives them in different places.

Common to all, as to format: biochemical
The target in assay [1] is MMP-9FL (full-length Gelatinase B) (Homo sapiens, UniProt P14780). Nature of the assay: Thiopeptolide hydrolysis assay, MMP-9FL. The note with it: Table 2; thiopeptolide substrate, HEPES pH 7.0; read-out: IC50 (μM) Versus Certain MMPs: MMP09 (FL). From the text: (§1) The invention compounds of Formula I have been evaluated in standard assays for their ability to inhibit the catalytic activity of various MMP enzymes.
Sequence of MMP-9FL (full-length Gelatinase B) (P14780 94-707, species assumed): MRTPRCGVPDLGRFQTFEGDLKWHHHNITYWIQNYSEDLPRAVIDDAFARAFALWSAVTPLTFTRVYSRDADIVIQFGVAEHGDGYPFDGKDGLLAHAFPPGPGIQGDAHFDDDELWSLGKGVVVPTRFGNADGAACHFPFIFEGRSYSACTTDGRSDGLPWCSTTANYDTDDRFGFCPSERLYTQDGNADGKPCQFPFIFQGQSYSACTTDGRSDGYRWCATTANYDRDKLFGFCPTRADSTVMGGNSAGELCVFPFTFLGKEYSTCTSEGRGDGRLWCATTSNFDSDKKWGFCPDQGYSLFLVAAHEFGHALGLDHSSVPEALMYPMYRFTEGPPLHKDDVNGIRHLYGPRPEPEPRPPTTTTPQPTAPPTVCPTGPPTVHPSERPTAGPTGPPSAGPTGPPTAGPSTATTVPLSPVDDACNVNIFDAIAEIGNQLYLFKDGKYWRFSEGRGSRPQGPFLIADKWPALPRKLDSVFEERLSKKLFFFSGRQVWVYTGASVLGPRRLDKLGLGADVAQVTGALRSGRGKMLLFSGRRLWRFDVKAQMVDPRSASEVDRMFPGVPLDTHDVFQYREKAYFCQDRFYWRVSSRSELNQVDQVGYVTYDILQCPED
(§2) Thiopeptolide substrates show virtually no decomposition or hydrolysis at or below neutral pH in the absence of a matrix metalloproteinase enzyme.
(§3) Several representative compounds have been evaluated for their ability to inhibit various matrix metalloproteinase enzymes.

The target of assay [2] is T1, MMP-1FL (full-length interstitial collagenase) (Homo sapiens, UniProt P03956).
T1 sequence (P03956 100-469): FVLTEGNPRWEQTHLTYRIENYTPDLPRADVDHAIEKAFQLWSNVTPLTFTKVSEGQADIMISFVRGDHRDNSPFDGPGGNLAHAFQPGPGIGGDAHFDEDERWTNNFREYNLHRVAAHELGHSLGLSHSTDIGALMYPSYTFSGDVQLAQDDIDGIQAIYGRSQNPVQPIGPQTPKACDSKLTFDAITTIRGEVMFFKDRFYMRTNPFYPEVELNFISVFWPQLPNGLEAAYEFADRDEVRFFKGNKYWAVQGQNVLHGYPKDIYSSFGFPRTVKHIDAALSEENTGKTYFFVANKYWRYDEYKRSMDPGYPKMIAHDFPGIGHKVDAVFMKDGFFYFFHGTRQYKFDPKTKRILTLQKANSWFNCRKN
In words: Thiopeptolide hydrolysis assay, MMP-1FL. Particulars: Table 2; thiopeptolide substrate, HEPES pH 7.0; read-out: IC50 (μM) Versus Certain MMPs: MMP01 (FL).
Excerpt: as §1, §2, §3

The target in assay [3] is T2, MMP-7FL (full-length matrilysin) (Homo sapiens, UniProt P09237).
T2 sequence (P09237 95-267): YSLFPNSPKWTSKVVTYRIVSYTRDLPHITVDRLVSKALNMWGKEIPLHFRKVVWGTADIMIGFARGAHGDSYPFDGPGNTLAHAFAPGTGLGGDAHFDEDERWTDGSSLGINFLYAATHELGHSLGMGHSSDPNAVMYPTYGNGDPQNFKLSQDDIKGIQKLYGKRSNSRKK
In words: Thiopeptolide hydrolysis assay, MMP-7FL. Particulars: thiopeptolide substrate, HEPES pH 7.0.
Excerpt: as §1, §2, §3

Assay [4] has as its target MMP-3CD (catalytic domain of stromelysin-1) (Homo sapiens, UniProt P08254). Nature of the assay: Thiopeptolide hydrolysis assay, MMP-3CD. The note with it: thiopeptolide substrate, MES buffer pH 6.0. The method, then: as §1, §2, §3
It should be appreciated that the assay buffer used with MMP-3CD was 50 mM of N-morpholinoethane sulfonate (“MES”) at pH 6.0 rather than the HEPES buffer at pH 7.0 described above.

Assay [5] deals with MMP-13CD (catalytic domain of collagenase 3) (Homo sapiens, UniProt P45452). Nature of the assay: Thiopeptolide hydrolysis assay, MMP-13CD. The note with it: thiopeptolide substrate, HEPES pH 7.0.
Excerpt: as §1, §2, §3

Assay [6] has as its target MMP-14CD (catalytic domain of MMP-14) (Homo sapiens, UniProt P50281). In words: Thiopeptolide hydrolysis assay, MMP-14CD. Particulars: Table 2; thiopeptolide substrate, HEPES pH 7.0; read-out: IC50 (μM) Versus Certain MMPs: MMP14 (CD).
Excerpt: as §1, §2, §3

The mark [7] stands for this setting: Table 2, read-out: IC50 (μM) Versus Certain MMPs: MMP07 (FL).
[8] abbreviates: Table 2, read-out: IC50 (μM) Versus Certain MMPs: MMP03 (CD).
Setting [9] is: Table 2, read-out: IC50 (μM) Versus Certain MMPs: MMP13 (CD).

Sequence of MMP-3CD (catalytic domain of stromelysin-1) (P08254 100-272 limits assumed): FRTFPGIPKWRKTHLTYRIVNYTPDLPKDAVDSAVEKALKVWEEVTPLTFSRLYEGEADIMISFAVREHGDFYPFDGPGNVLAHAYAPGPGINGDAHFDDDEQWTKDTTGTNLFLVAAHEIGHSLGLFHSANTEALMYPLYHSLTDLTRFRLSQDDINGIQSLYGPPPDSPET

Consider `COc1ccc(CNC(=O)c2ccc3c(c2)S(=O)(=O)N(Cc2ccc(C(N)=O)cc2)C(=O)N3C)cc1` [Example 14, 2-(4-Carbamoyl-benzyl)-4-methyl-1,1,3-trioxo-1,2,3,4-tetrahydro-1l^6-benzo[1,2,4]thiadiazine-7-carboxylic acid 4-methoxy-benzylamide], for which the IC50 in assay [1] was more than 30 µM; in assay [2] it was more than 30 µM; in assay [3] (setting [7]) it was more than 30 µM; in assay [4] (setting [8]), more than 100 µM; in assay [5] (setting [9]), 0.155 µM; in assay [6], more than 30 µM.

As to `COc1ccc(CNC(=O)c2ccc3c(c2)S(=O)(=O)N(Cc2ccc(CC(=O)O)cc2)C(=O)N3C)cc1` [Example 30, {4-[7-(4-Methoxy-benzylcarbamoyl)-4-methyl-1,1,3-trioxo-3,4-dihydro-1H-1l^6-benzo[1,2,4]thiadiazin-2-ylmethyl]-phenyl}-acetic Acid], the IC50 in assay [1] is more than 100 µM; in assay [2], more than 100 µM; in assay [3] (setting [7]) it was 82 µM; in assay [4] (setting [8]), more than 30 µM; in assay [5] (setting [9]), 0.0355 µM; in assay [6], more than 100 µM.

Take `CN1C(=O)N(Cc2ccccc2)S(=O)(=O)c2cc(C(=O)NCc3ccc(F)cc3)ccc21` [Example 16, 2-Benzyl-4-methyl-1,1,3-trioxo-1,2,3,4-tetrahydro-1l^6-benzo[1,2,4]thiadiazine-7-carboxylic acid 4-fluoro-benzylamide]: the IC50 in assay [1] is more than 30 µM; in assay [2], more than 100 µM; in assay [3] (setting [7]), more than 30 µM; in assay [4] (setting [8]) it was more than 100 µM; in assay [5] (setting [9]), 0.345 µM; in assay [6], more than 30 µM.

Turning to `COc1cc(CNC(=O)c2ccc3c(c2)S(=O)(=O)N(Cc2ccccc2)C(=O)N3C)ccn1` [Example 21, 2-Benzyl-4-methyl-1,1,3-trioxo-1,2,3,4-tetrahydro-1l^6-benzo[1,2,4]thiadiazine-7-carboxylic acid (2-methoxy-pyridin-4-ylmethyl)-amide], the IC50 in assay [1] is more than 30 µM; in assay [2], more than 30 µM; in assay [3] (setting [7]) it was more than 30 µM; in assay [4] (setting [8]), more than 30 µM; in assay [5] (setting [9]), 0.155 µM; in assay [6], more than 100 µM.

With `COc1cccc(CNC(=O)c2ccc3c(c2)S(=O)(=O)N(Cc2ccccc2)C(=O)N3C)c1` [Example 34, 2-Benzyl-4-methyl-1,1,3-trioxo-1,2,3,4-tetrahydro-1l^6-benzo[1,2,4]thiadiazine-7-carboxylic acid 3-methoxy-benzylamide], the IC50 in assay [1] was more than 30 µM; in assay [2], more than 30 µM; in assay [3] (setting [7]) it was more than 30 µM; in assay [4] (setting [8]) it was more than 100 µM; in assay [5] (setting [9]) it was 0.0625 µM; in assay [6] it was more than 30 µM.

`COc1ccc(CNC(=O)c2ccc3c(c2)S(=O)(=O)N(Cc2ccc(C(=O)N4CCCCC4)cc2)C(=O)N3C)cc1` [Example 27, 4-Methyl-1,1,3-trioxo-2-[4-(piperidine-1-carbonyl)-benzyl]-1,2,3,4-tetrahydro-1l^6-benzo[1,2,4]thiadiazine-7-carboxylic acid 4-methoxy-benzylamide]: the concentration for half-maximal inhibition (IC50) is more than 30 µM in assay [1]; more than 30 µM in assay [2]; more than 30 µM in assay [3] (setting [7]); 10 µM in assay [4] (setting [8]); 0.29 µM in assay [5] (setting [9]); more than 30 µM in assay [6].

With `CNS(=O)(=O)c1ccc(CN2C(=O)N(C)c3ccc(C(=O)NCc4ccc(OC)cc4)cc3S2(=O)=O)cc1` [Example 18, 4-Methyl-2-(4-methylsulfamoyl-benzyl)-1,1,3-trioxo-1,2,3,4-tetrahydro-1l^6-benzo[1,2,4]thiadiazine-7-carboxylic acid 4-methoxy-benzylamide], the IC50 is more than 30 µM in assay [1]; more than 30 µM in assay [2]; more than 30 µM in assay [3] (setting [7]); 10 µM in assay [4] (setting [8]); 0.31 µM in assay [5] (setting [9]); more than 30 µM in assay [6].

As to `COc1cccc(CNC(=O)c2ccc3c(c2)S(=O)(=O)N(Cc2ccc(C(=O)O)cc2)C(=O)N3C)c1` [Example 31, 4-[7-(3-Methoxy-benzylcarbamoyl)-4-methyl-1,1,3-trioxo-3,4-dihydro-1H-1l^6-benzo[1,2,4]thiadiazin-2-ylmethyl]-benzoic Acid], the IC50 in assay [1] is more than 100 µM; in assay [2], more than 100 µM; in assay [3] (setting [7]), more than 30 µM; in assay [4] (setting [8]), more than 30 µM; in assay [5] (setting [9]), 0.00485 µM; in assay [6], more than 100 µM.

With `COc1ccc(CNC(=O)c2ccc3c(c2)S(=O)(=O)N(Cc2ccc(S(=O)(=O)N4CCOCC4)cc2)C(=O)N3C)cc1` [Example 19, 4-Methyl-2-[4-(morpholine-4-sulfonyl)-benzyl]-1,1,3-trioxo-1,2,3,4-tetrahydro-1l^6-benzo[1,2,4]thiadiazine-7-carboxylic acid 4-methoxy-benzylamide], the IC50 in assay [1] is more than 30 µM; in assay [2] it was more than 30 µM; in assay [3] (setting [7]), more than 30 µM; in assay [4] (setting [8]) it was 11 µM; in assay [5] (setting [9]) it was 0.23 µM; in assay [6] it was more than 30 µM.

In the case of `COC(=O)c1ccc(CN2C(=O)N(C)c3ccc(C(=O)NCc4ccc(F)cc4)cc3S2(=O)=O)cc1` [Example 20, 4-[7-(4-Fluoro-benzylcarbamoyl)-4-methyl-1,1,3-trioxo-3,4-dihydro-1H-1l^6-benzo[1,2,4]thiadiazin-2-ylmethyl]-benzoic Acid Methyl Ester], the IC50 is 10 µM in assay [1]; more than 30 µM in assay [2]; more than 30 µM in assay [3] (setting [7]); more than 30 µM in assay [4] (setting [8]); 0.385 µM in assay [5] (setting [9]); more than 30 µM in assay [6].

Turning to `COc1ccc(CNC(=O)c2ccc3c(c2)S(=O)(=O)N(Cc2ccc(C#N)cc2)C(=O)N3C)cc1` [Example 29, 2-(4-Cyano-benzyl)-4-methyl-1,1,3-trioxo-1,2,3,4-tetrahydro-1l^6-benzo[1,2,4]thiadiazine-7-carboxylic acid 4-methoxy-benzylamide], the IC50 in assay [1] is more than 30 µM; in assay [2], more than 30 µM; in assay [3] (setting [7]), more than 30 µM; in assay [4] (setting [8]), 9.4 µM; in assay [5] (setting [9]) it was 0.13 µM; in assay [6] it was more than 30 µM.

As for `COc1ccc(CNC(=O)c2ccc3c(c2)S(=O)(=O)N(Cc2ccc4ccccc4c2)C(=O)N3C)cc1` [Example 22, 4-Methyl-2-naphthalen-2-ylmethyl-1,1,3-trioxo-1,2,3,4-tetrahydro-1l^6-benzo[1,2,4]thiadiazine-7-carboxylic acid 4-methoxy-benzylamide], the IC50 in assay [1] was more than 30 µM; in assay [2], more than 30 µM; in assay [3] (setting [7]), more than 30 µM; in assay [4] (setting [8]), more than 30 µM; in assay [5] (setting [9]), 0.62 µM; in assay [6] it was more than 30 µM.

Regarding `COc1ccc(CNC(=O)c2ccc3c(c2)S(=O)(=O)N(Cc2ccc(-c4nn[nH]n4)cc2)C(=O)N3C)cc1` [Example 32, 4-Methyl-1,1,3-trioxo-2-[4-(2H-tetrazol-5-yl)-benzyl]-1,2,3,4-tetrahydro-1l^6-benzo[1,2,4]thiadiazine-7-carboxylic acid 4-methoxy-benzylamide], the IC50 in assay [1] is more than 100 µM; in assay [2], more than 100 µM; in assay [3] (setting [7]) it was more than 30 µM; in assay [4] (setting [8]) it was 15 µM; in assay [5] (setting [9]), 0.0062 µM; in assay [6], more than 100 µM.

As for `CN1C(=O)N(Cc2ccccc2)S(=O)(=O)c2cc(C(=O)OCc3ccccc3)ccc21` [Example 1, 2-Benzyl-4-methyl-1,1,3-trioxo-1,2,3,4-tetrahydro-1l^6-benzo[1,2,4]thiadiazine-7-carboxylic Acid Benzyl Ester], the IC50 in assay [3] (Table 1, read-out: MMP07 (FL) IC50) was found to be 44 µM; in assay [4] (Table 1, read-out: MMP03 (CD) IC50), 85 µM; in assay [5] (Table 1, read-out: MMP13 (CD) IC50), 0.2 µM.

One may read the IC50 as the concentration that gives 50% inhibition.
